Measurements from publication PMC3956299 (Chembiochem : a European journal of chemical biology, 2009).

Assays:
[1] = tested on: processing of influenza viral hemagglutinin in cultured MDCK cells; conditions: cited from earlier work
[2] = biological target: T1, Drosophila Golgi α-mannosidase II (dGMII) (Drosophila melanogaster, UniProt Q24451); assay type: biochemical
T1 sequence (Q24451 31-1108 limits assumed): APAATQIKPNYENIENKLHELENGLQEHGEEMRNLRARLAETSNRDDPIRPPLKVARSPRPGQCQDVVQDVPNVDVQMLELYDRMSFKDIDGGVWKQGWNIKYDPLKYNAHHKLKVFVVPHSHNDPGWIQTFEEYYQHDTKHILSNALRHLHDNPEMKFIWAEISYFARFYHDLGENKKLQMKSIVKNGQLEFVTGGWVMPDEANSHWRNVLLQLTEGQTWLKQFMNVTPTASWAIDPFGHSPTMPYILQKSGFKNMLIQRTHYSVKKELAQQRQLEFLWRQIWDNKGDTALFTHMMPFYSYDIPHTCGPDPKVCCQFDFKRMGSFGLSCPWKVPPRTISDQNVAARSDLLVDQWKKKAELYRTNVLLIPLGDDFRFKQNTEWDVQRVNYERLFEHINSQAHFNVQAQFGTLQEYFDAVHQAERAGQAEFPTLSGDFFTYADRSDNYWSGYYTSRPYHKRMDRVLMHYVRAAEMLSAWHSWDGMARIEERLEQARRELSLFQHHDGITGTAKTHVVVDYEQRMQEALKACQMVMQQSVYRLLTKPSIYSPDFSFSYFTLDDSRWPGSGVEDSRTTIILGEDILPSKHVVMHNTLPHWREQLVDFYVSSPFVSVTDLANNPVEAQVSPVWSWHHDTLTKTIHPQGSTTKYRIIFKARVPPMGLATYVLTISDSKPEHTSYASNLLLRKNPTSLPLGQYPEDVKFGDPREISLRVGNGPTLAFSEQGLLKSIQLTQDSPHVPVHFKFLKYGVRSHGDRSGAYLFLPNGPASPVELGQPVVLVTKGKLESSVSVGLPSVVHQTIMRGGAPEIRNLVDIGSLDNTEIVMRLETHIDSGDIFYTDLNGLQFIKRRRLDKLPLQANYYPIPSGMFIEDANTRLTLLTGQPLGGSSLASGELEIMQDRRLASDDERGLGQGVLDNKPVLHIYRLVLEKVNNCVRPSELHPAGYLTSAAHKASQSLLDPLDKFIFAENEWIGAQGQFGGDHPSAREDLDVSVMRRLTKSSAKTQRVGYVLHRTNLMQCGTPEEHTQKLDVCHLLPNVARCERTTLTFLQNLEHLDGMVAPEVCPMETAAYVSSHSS

Compound: CS[C@@H]1[C@@H](N)[C@@H](O)[C@@H](O)[C@H]1O [Compound 1, Mannostatin A]
- effect on processing of influenza viral hemagglutinin [1]: effectively blocked the processing of influenza viral hemagglutinin

Compound: N[C@@H]1C[C@H](O)[C@H](O)[C@@H]1O [Compound 3, (1S, 2S, 3R, 4R)-4-aminocyclopentane-1,2,3-triol]
- inhibitory activity in words [2]: very poor inhibitor

Compound: CO[C@@H]1[C@@H](N)[C@@H](O)[C@@H](O)[C@H]1O [Compound 5, (1R, 2R, 3R, 4S, 5R)-4-Amino-5-methoxycyclopentane-1,2,3-triol]
- fold enhancement of potency on changing hydroxyl of 4 to methoxy ([2]; relative to 4 (4a)): ~ 4 fold
